Data on 15 compounds can be found in ChEMBL document CHEMBL3425496, “Exploring experimental and computational markers of cyclic peptides: Charting islands of permeability” (Eur J Med Chem, 2015).

Data set [1] is described as follows: Apparent permeability of the compound at 50 uM after 5 hrs by PAMPA method. Format: physicochemical.
Data set [2] in a line: Apparent permeability from apical to basolateral side in human Caco2 cells by LC-MS analysis. The data set is classed as ADME, cell-based. Particulars: Caco-2. A general note: Caco-2 monolayers are a common model of the intestinal barrier.

Structures are written as SMILES. Square brackets hold non-standard residues; d marks the D form. Peptide text beside a SMILES is read from it. NMeT = CN[C@H](C(=O)O)[C@@H](C)O; NMeL = CN[C@@H](CC(C)C)C(=O)O; Sar = CNCC(=O)O A value given as a limit tells only on which side of the number the result lay.

For the compound `CC(C)C[C@@H]1C(=O)N(C)[C@@H](CC(C)C)C(=O)N[C@@H](Cc2ccc(O)cc2)C(=O)N(C)[C@H](C)C(=O)N(C)CC(=O)N[C@@H](Cc2ccccc2)C(=O)N1C`, the Papp at 5 h, 50 µM in data set [1] was determined as 0.93 ×10⁻⁶ cm/s. The Papp A→B in data set [2] amounted to 4.77 ×10⁻⁶ cm/s.

On to `CC(C)C[C@@H]1NC(=O)[C@@H](CC(C)C)NC(=O)[C@@H](CC(C)C)NC(=O)[C@@H](CC(C)C)NC(=O)[C@H](Cc2c[nH]c3ccccc23)NC(=O)[C@@H]2CCCN2C1=O`, for which, in data set [1], the Papp at 5 h, 50 µM was 0.28 ×10⁻⁶ cm/s. In data set [2], the Papp A→B stood at 0.36 ×10⁻⁶ cm/s.

For `CC(C)C[C@@H]1NC(=O)[C@H](Cc2ccccc2)NC(=O)CNC(=O)[C@@H](C)NC(=O)[C@H](Cc2ccc(O)cc2)NC(=O)[C@@H]2CCCN2C1=O`, in data set [1], the Papp at 5 h, 50 µM was 0.03 ×10⁻⁶ cm/s. Besides, the Papp A→B in data set [2] was below 0.14 ×10⁻⁶ cm/s.

Take `CC(C)C[C@@H]1NC(=O)[C@H](Cc2ccccc2)NC(=O)CN(C)C(=O)[C@H](CC(C)C)N(C)C(=O)[C@H](Cc2ccc(O)cc2)NC(=O)[C@@H]2CCCN2C1=O` (cyclo(FLPY[NMeL][Sar])): the Papp at 5 h, 50 µM in data set [1] is 0.1 ×10⁻⁶ cm/s. Further, the Papp A→B in data set [2] worked out at 0.1 ×10⁻⁶ cm/s.

Take `CC(C)C[C@@H]1NC(=O)[C@H](Cc2ccccc2)NC(=O)[C@H]([C@@H](C)O)NC(=O)CNC(=O)[C@H](C)NC(=O)[C@H](Cc2ccc(O)cc2)NC1=O` (cyclo(AGTFLY)): the Papp at 5 h, 50 µM in data set [1] came out at 0.02 ×10⁻⁶ cm/s. Further, the Papp A→B in data set [2] worked out at 0.46 ×10⁻⁶ cm/s.

Turning to `CC(C)C[C@@H]1NC(=O)[C@H](Cc2ccccc2)NC(=O)[C@H]([C@@H](C)O)NC(=O)CN(C)C(=O)[C@H]([C@@H](C)O)NC(=O)[C@H](Cc2ccc(O)cc2)NC1=O` (cyclo(FLYT[Sar]T)), the Papp at 5 h, 50 µM in data set [1] came to 0.02 ×10⁻⁶ cm/s. The Papp A→B in data set [2] was 0.17 ×10⁻⁶ cm/s.

Take `CC(C)C[C@@H]1NC(=O)[C@H](Cc2ccc(O)cc2)NC(=O)[C@H]2CCCN2C(=O)[C@H](CC(C)C)NC(=O)[C@H](CC(C)C)N(C)C(=O)[C@@H](CC(C)C)N(C)C1=O`: in data set [1], the Papp at 5 h, 50 µM is 0.96 ×10⁻⁶ cm/s. Besides, in data set [2], the Papp A→B was 10.8 ×10⁻⁶ cm/s.

As for `CC(C)C[C@@H]1NC(=O)[C@H](CC(C)C)N(C)C(=O)[C@@H](CC(C)C)N(C)C(=O)[C@H](Cc2ccc(O)cc2)NC(=O)[C@@H]2CCCN2C(=O)[C@H](CC(C)C)N(C)C1=O`, the Papp at 5 h, 50 µM in data set [1] was found to be 2.3 ×10⁻⁶ cm/s. Further, the apparent permeability from apical to basolateral (Papp A→B) in data set [2] came to 13.9 ×10⁻⁶ cm/s.

With `C[C@@H](O)[C@@H]1NC(=O)[C@@H](CCCCN)NC(=O)[C@@H](Cc2c[nH]c3ccccc23)NC(=O)[C@H](Cc2ccccc2)NC(=O)[C@@H]2CCCN2C(=O)[C@@H](Cc2ccccc2)NC1=O`, in data set [1], the Papp at 5 h, 50 µM is 0.09 ×10⁻⁶ cm/s. For the same compound, the Papp A→B in data set [2] came out at 0.2 ×10⁻⁶ cm/s.

On to `CC(C)C[C@@H]1NC(=O)[C@H](Cc2ccc(O)cc2)NC(=O)[C@H]2CCCN2C(=O)[C@H](CC(C)C)NC(=O)[C@H](CC(C)C)N(C)C(=O)[C@@H](CC(C)C)NC1=O` (cyclo(L[dL][NMeL]L[dP]Y)), for which the Papp at 5 h, 50 µM in data set [1] was 0.76 ×10⁻⁶ cm/s. Also, the Papp A→B in data set [2] was found to be 7.83 ×10⁻⁶ cm/s.

For `CC(C)C[C@H]1C(=O)N2CCC[C@@H]2C(=O)N(C)[C@@H](Cc2ccc(O)cc2)C(=O)N[C@@H](C)C(=O)NCC(=O)N(C)[C@@H](Cc2ccccc2)C(=O)N1C`, the Papp at 5 h, 50 µM in data set [1] was determined as 0.16 ×10⁻⁶ cm/s. Also, in data set [2], the Papp A→B is 0.1 ×10⁻⁶ cm/s.

Consider `CC(C)C[C@@H]1NC(=O)[C@@H](CC(C)C)N(C)C(=O)[C@H](CC(C)C)NC(=O)[C@H](Cc2ccc(O)cc2)N(C)C(=O)[C@H]2CCCN2C(=O)[C@H](CC(C)C)NC1=O`, for which the Papp at 5 h, 50 µM in data set [1] worked out at 1.51 ×10⁻⁶ cm/s. For the same compound, the Papp A→B in data set [2] is 7.75 ×10⁻⁶ cm/s.

As for `CC(C)C[C@@H]1NC(=O)[C@H](Cc2c[nH]c3ccccc23)NC(=O)[C@@H]2CCCN2C(=O)[C@H]2CCCN2C(=O)[C@@H](CC(C)C)NC(=O)[C@H](CC(C)C)NC1=O`, the Papp at 5 h, 50 µM in data set [1] came to 0.19 ×10⁻⁶ cm/s. Besides, in data set [2], the Papp A→B stood at 0.21 ×10⁻⁶ cm/s.

In the case of `CC(C)C[C@@H]1NC(=O)[C@H](Cc2ccccc2)NC(=O)[C@H]([C@@H](C)O)N(C)C(=O)CN(C)C(=O)[C@H]([C@@H](C)O)NC(=O)[C@H](Cc2ccc(O)cc2)NC1=O` (cyclo(FLYT[Sar][NMeT])), the Papp at 5 h, 50 µM in data set [1] worked out at 0.01 ×10⁻⁶ cm/s. Also, the Papp A→B in data set [2] was found to be 0.1 ×10⁻⁶ cm/s.

Regarding `CC(C)C[C@@H]1NC(=O)[C@H](Cc2c[nH]c3ccccc23)NC(=O)[C@H]2CCCN2C(=O)[C@H](CC(C)C)NC(=O)[C@H](CC(C)C)NC(=O)[C@@H](CC(C)C)NC1=O`, the apparent permeability (Papp) at 5 h, 50 µM in data set [1] was found to be 1.67 ×10⁻⁶ cm/s. The Papp A→B in data set [2] was 5.95 ×10⁻⁶ cm/s.

As usually defined, the Papp is a coefficient for how fast a substance crosses the barrier. A word on the Papp A→B: it is how fast a substance crosses the layer from the apical side.
